We go through 21 compounds from patent US20090181898A1, “ABUSE-RESISTANT A[…]” (SHIRE LLC, priority 2002, published 2009).

Structures can show the parent of a compound that is named as a salt.

Data set [1] in a line: Oral bioavailability of peptide amphetamine conjugates (HCl salts, ELISA). The note with it: rats.
Data set [2] in a line: Intranasal bioavailability of peptide amphetamine conjugates (HCl salts, ELISA). The note with it: for Percent AUC (bioavailability relative to Amphetamine) / Percent Cmax (relative to Amphetamine): Intranasal, rats. (In general: ELISA stands for enzyme-linked immunosorbent assay.)
Data set [3] in a line: Kitchen tests: water, acid (vinegar), base (baking powder, baking soda), boiling. The conditions noted are these: for free amphetamine released: heated to boiling for 20-60 minutes. Format: physicochemical. As for the experimental part:
“Kitchen tests” were performed in anticipation of attempts by illicit chemists to release free amphetamine from the amphetamine conjugate.

Data set [4] in a line: Intravenous bioavailability of peptide amphetamine conjugates (HCl salts, ELISA). The conditions noted are these: rats.
Data set [5] is described as follows: Oral bioavailability at escalating doses (LC/MS/MS). The note with it: rat, oral.
Data set [6] relates to rats. The note with it: cited from earlier work.
Data set [7] concerns rats. The data set can be described thus: Single oral dose toxicity. Format: in vivo, Sprague Dawley rats. The conditions noted are these: rat, single oral dose. As for the experimental part:
Three male and three female Sprague Dawley rats per group were given a single oral administration of L-lysine-d-amphetamine at 0.1, 1.0, 10, 60, 100, or 1000 mg/kg (Table 53).
Animals found dead, or sacrificed moribund were necropsied and discarded.

Data set [8] concerns children with ADHD. The data set can be described thus: Pediatric efficacy trial, ADHD-RS and CPRS, parallel-group, four weeks. The note with it: children 6-12, 30, 50 or 70 mg once daily.
Data set [9] is described as follows: Stability under basic conditions.
For data set [10], the system named is enzyme cocktails (pepsin, pancreatin, pronase, esterase, Omnigest, VitälZym). The data set can be described thus: Stability under treatment with commercially available enzyme cocktails. The data set is classed as in vitro ADME. The conditions noted are these: 37° C. As for the experimental part: For acids and bases (Table 59), 10 mg of Lys-Amp was mixed with 2 mL of each stock solution, and the solution was shaken at 20° C. For enzyme treatment (Table 60), 10 mg Lys-Amp was mixed with 5 mL of each enzyme cocktail, and the solution was shaken at 37° C. […] Many of the commercially available reagents also contained various solvents and/or surfactants.
Unless otherwise indicated, solutions were used directly from the container and were combined with neat Lys-Amp solid. Lewis Red Devil® Lye, Enforcer Drain Care® Septic Treatment, and Rid-X® Septic Treatment were prepared as saturated solutions in H2O. Enzymes used were purchased from Sigma and directly dissolved in water (3 mg/mL pepsin, 10 mg/mL pancreatin, 3 mg/mL pronase, 3 mg/mL esterase), while enzyme-containing nutraceuticals such as Omnigest® and VitälZym® were first either crushed or opened (1 tablet or capsule per 5 mL of H2O).

Take `[2H]OC(=O)CC[C@H](N)C(=O)NC(C)Cc1ccccc1` (some centres unmarked) [E-Amp]: in data set [1], the “Percent AUC (bioavailability relative to Amphetamine)” value was 73% and the “Percent Cmax (relative to Amphetamine)” value is 95%.
With `[2H]OC(=O)CC[C@H](NC(=O)[C@@H](N)CCC(=O)O)C(=O)NC(C)Cc1ccccc1` (some centres unmarked) [EE-Amp], in data set [1], the “Percent AUC (bioavailability relative to Amphetamine)” value came to 26% and the “Percent Cmax (relative to Amphetamine)” value is 74%.
Turning to `[2H]OC(=O)CC[C@H](NC(=O)[C@H](CCC(=O)O)NC(=O)[C@@H](N)CCC(=O)O)C(=O)NC(C)Cc1ccccc1` (some centres unmarked) [EEE-Amp], in data set [1], the “Percent AUC (bioavailability relative to Amphetamine)” value came to 69% and the “Percent Cmax (relative to Amphetamine)” value turned out to be 53%. Also, in [2], the “Percent AUC (bioavailability relative to Amphetamine)” value turned out to be 10% and the “Percent Cmax (relative to Amphetamine)” value is on record as 10%.
As for `[2H]N(C(=O)[C@H](CCC(=O)O)NC(=O)[C@@H](N)CCC(=O)O)[C@@H](Cc1ccccc1)C(=O)NC(C)Cc1ccccc1` (some centres unmarked) [EEF-Amp], in data set [1], the “Percent AUC (bioavailability relative to Amphetamine)” value was 42% and the “Percent Cmax (relative to Amphetamine)” value is 73%. In data set [2], the “Percent AUC (bioavailability relative to Amphetamine)” value is 39% and the “Percent Cmax (relative to Amphetamine)” value stood at 29%.
Regarding `[2H]N(C(=O)[C@@H](N)Cc1ccccc1)[C@@H](Cc1ccccc1)C(=O)NC(C)Cc1ccccc1` (some centres unmarked) [FF-Amp], in [1], the “Percent AUC (bioavailability relative to Amphetamine)” value is given as 27% and the “Percent Cmax (relative to Amphetamine)” value is 64%.
For the compound `CC(Cc1ccccc1)NC(=O)CN` (centres unmarked) [G-Amp], in [1], the “Percent AUC (bioavailability relative to Amphetamine)” value turned out to be 81% and the “Percent Cmax (relative to Amphetamine)” value is 78%. In addition, in data set [2], the “Percent AUC (bioavailability relative to Amphetamine)” value turned out to be 65% and the “Percent Cmax (relative to Amphetamine)” value came to 53%.
Turning to `[2H]N(CC(=O)NC(C)Cc1ccccc1)C(=O)CN` (centres unmarked) [GG-Amp], in [1], the “Percent AUC (bioavailability relative to Amphetamine)” value is recorded as 79% and the “Percent Cmax (relative to Amphetamine)” value is 88%. For the same compound, in [2], the “Percent AUC (bioavailability relative to Amphetamine)” value is given as 88% and the “Percent Cmax (relative to Amphetamine)” value is 85%.
As for `CC(Cc1ccccc1)NC(=O)CNC(=O)CNC(=O)CN` (centres unmarked) [Gly3-Amp, 2-amino-N-({[(1-methyl-2-phenyl-ethylcarbornyl)-methyl]-carbornyl}-methyl)-acetamide], the free amphetamine released in data set [3] (Baking Powder), in data set [3] (Baking Soda), in data set [3] (Tap Water) and in data set [3] (Vinegar) was 0% each time. The “Release of free amphetamine in kitchen tests” value in data set [3] (water, vinegar, baking powder, baking soda, boiling 20-60 minutes) was “no detectable free amphetamine”.
`CC(Cc1ccccc1)NC(=O)C(O)C(O)C(O)C(O)CO` (centres unmarked) [Gulonate-Amp]: the “Percent AUC (bioavailability relative to Amphetamine)” value in [4] turned out to be 3%; in [1] it was 1%; in data set [2], 0.4%. Besides, the “Percent Cmax (relative to Amphetamine)” value in data set [4] is reported as 5%; in data set [1] it was 1%; in data set [2] it was 0.5%.
With `[2H]N[C@@H](Cc1c[nH]cn1)C(=O)NC(C)Cc1ccccc1` (some centres unmarked) [H-Amp], in [1], the “Percent AUC (bioavailability relative to Amphetamine)” value is 16% and the “Percent Cmax (relative to Amphetamine)” value is recorded as 21%. Moreover, in data set [2], the “Percent AUC (bioavailability relative to Amphetamine)” value was 22% and the “Percent Cmax (relative to Amphetamine)” value is on record as 42%.
The matching figures for `[2H]N[C@H](C(=O)NC(C)Cc1ccccc1)[C@@H](C)CC` (some centres unmarked) [I-Amp]: 71%, 52%, 73% and 97%.
Consider `[2H]N(CC(=O)NC(C)Cc1ccccc1)C(=O)[C@@H](N)CCCCN` (some centres unmarked) [KG-Amp], for which the “Percent AUC (bioavailability relative to Amphetamine)” value is 69% in data set [1] and 13% in [2]. Further, the figures for the “Percent Cmax (relative to Amphetamine)” value in data set [1] and in data set [2] were 71% and 12%, respectively.
Regarding `[2H]N[C@@H](CC(C)C)C(=O)NC(C)Cc1ccccc1` (stereo partly drawn) [L-Amp], in [1], the “Percent AUC (bioavailability relative to Amphetamine)” value was determined as 65% and the “Percent Cmax (relative to Amphetamine)” value was 81%.
In the case of `[2H]OC(=O)CC[C@H](NC(=O)[C@@H](N)CC(C)C)C(=O)NC(C)Cc1ccccc1` (some centres unmarked) [LE-Amp], in [1], the “Percent AUC (bioavailability relative to Amphetamine)” value turned out to be 40% and the “Percent Cmax (relative to Amphetamine)” value was 28%. Also, in data set [2], the “Percent AUC (bioavailability relative to Amphetamine)” value was 6% and the “Percent Cmax (relative to Amphetamine)” value stood at 6%.
As for `[2H]N1CCC[C@H]1C(=O)NC(C)Cc1ccccc1` (some centres unmarked) [P-Amp], in data set [1], the “Percent AUC (bioavailability relative to Amphetamine)” value turned out to be 6% and the “Percent Cmax (relative to Amphetamine)” value is 3%. In data set [2], the “Percent AUC (bioavailability relative to Amphetamine)” value is given as 2% and the “Percent Cmax (relative to Amphetamine)” value was determined as 2%.
Regarding `CC(Cc1ccccc1)NC(=O)C1CCCN1C(=O)C1CCCN1` (centres unmarked) [PP-Amp], the “Percent AUC (bioavailability relative to Amphetamine)” value in data set [1] came out at 61%; in data set [2], 47%. Besides, the “Percent Cmax (relative to Amphetamine)” value in [1] is 80%; in data set [2], 43%.
Turning to `CC(Cc1ccccc1)NC(=O)C(N)Cc1ccccc1` (centres unmarked) [Phe-Amp, 2-amino-3-phenylpropanoic acid-(1-methyl-2-phenylethyl)-amide], the “Bioavailability by parenteral routes of administration” value in data set [2] (rat, parenteral routes) is reported as “little or no decrease”.
For `[2H]N[C@@H](Cc1ccc(O)cc1)C(=O)NC(C)Cc1ccccc1` (some centres unmarked) [Y-Amp], in data set [1], the “Percent AUC (bioavailability relative to Amphetamine)” value is given as 25% and the “Percent Cmax (relative to Amphetamine)” value was 20%. Moreover, in data set [2], the “Percent AUC (bioavailability relative to Amphetamine)” value amounted to 21% and the “Percent Cmax (relative to Amphetamine)” value came out at 20%.
Consider `C[C@H](N)Cc1ccccc1` [d-amphetamine sulfate], for which the values for the F of d-amphetamine in [5] (12 mg/kg) and in data set [5] (60 mg/kg) were 101% and 223%, respectively. In addition, in data set [6], the “Oral LD50” value was 96.8 mg/kg.
For L-lysine-d-amphetamine diHCl, the “Observable signs of toxicity, Groups 4-6” value in data set [7] is on record as “increased motor activity within two hours post-dose”. Also, in data set [7] (Days 1-7), the “Observable signs of toxicity, Groups 1-3” value was “no observable signs”.
For L-lysine-d-amphetamine dimesylate, in [8], the “Signs and symptoms of ADHD (ADHD-RS, CPRS) compared to placebo” value is “Significant improvements”. In data set [9] (3M sodium hydroxide), this compound displayed a Maximum d-amphetamine release of 25.4%. In addition, the d-amphetamine release entry in data set [9] (all other basic conditions) is listed as “less than 3%”. The d-amphetamine released in data set [10] (Cellfood ®, 1 h) stood at 0 w.t. % d-amphetamine; in data set [10] (Cellfood ®, 24 h) it was 0 w.t. % d-amphetamine; in [10] (Drano ® Max with Bacteria, 1 h), 0 w.t. % d-amphetamine; in data set [10] (Drano ® Max with Bacteria, 24 h) it was 0 w.t. % d-amphetamine; in data set [10] (Enforcer ® Septic, 1 h) it was 0 w.t. % d-amphetamine; in [10] (Enforcer ® Septic, 24 h) it was 0 w.t. % d-amphetamine. Also, the d-amphetamine released in [10] (Esterase 3 mg/mL, 1 h) turned out to be 0 w.t. % d-amphetamine; in data set [10] (Esterase 3 mg/mL, 24 h), 19 w.t. % d-amphetamine; in data set [10] (Omnigest ®, 1 h), 0 w.t. % d-amphetamine; in data set [10] (Omnigest ®, 24 h), 0 w.t. % d-amphetamine; in data set [10] (Pancreatin 10 mg/mL, 1 h) it was 0 w.t. % d-amphetamine; in [10] (Pancreatin 10 mg/mL, 24 h), 0 w.t. % d-amphetamine. The d-amphetamine released in [10] (Pepsin 3 mg/mL, 1 h) is on record as 0 w.t. % d-amphetamine; in [10] (Pepsin 3 mg/mL, 24 h), 0 w.t. % d-amphetamine; in data set [10] (Pronase 3 mg/mL, 1 h), 0 w.t. % d-amphetamine; in data set [10] (Pronase 3 mg/mL, 24 h), 24 w.t. % d-amphetamine; in data set [10] (Rid-X ® Septic, 1 h) it was 0 w.t. % d-amphetamine; in data set [10] (Rid-X ® Septic, 24 h), 0 w.t. % d-amphetamine. Further, the d-amphetamine released came out at 0 w.t. % d-amphetamine in data set [10] (VitälZym ®, 1 h) and 0 w.t. % d-amphetamine in data set [10] (VitälZym ®, 24 h).
